Source: patent publication US20110098180A1, “Herbicide-Resistant Plants, And Polynucleotides And Methods For Providing Same” (United States Department of Agriculture, priority 2002, published 2011)

How the values were obtained:
[1] = system: Arabidopsis thaliana transformed with Hydrilla PDS constructs; assay: Herbicide resistance of transformed Arabidopsis T1 seedlings; format: in vivo
Excerpt: Binary vectors for pds expression in plants included the 1-323 by upstream of the beginning of the putative mature protien, which is assumed to encode for chloroplast signal peptide/s. pHy4ATG5 was mutagenized at the amino acid 304 of pds to replace Arginine by Histidine, Threonine, Serine, or Cysteine, using the QuickChange™ Site-Directed Mutagenesis Kit of Stratagene (La Jolla, Calif.) and the same mutagenesis primers used for p3ORF-ATG indicated in the previous section. The resulting plasmids in this case were pHy4His, pHy4Thr, pHy4Ser and pHy4Cys. A 1.8 kb fragment between the TOPO4 SpeI site and the pds SspI site containing the pds gene was cloned into pCAMBIA1303 (CAMBIA, Canberra, Australia) SpeI-Pm1I sites (SspI and PmlI are compatible) replacing the 2.5 kb gus:mgfp; the resulting plasmid was designated pPDATG1303. The same strategy was used for each of the clones containing amino acid changes, generating plasmids pPDHIS1303, pPDTHR1303, pPDSER1303 and pPDCYS1303. The selectable marker in these constructs is the hygromycin phosphotransferase gene (hptll) for resistance to hygromycin in plants.
Arabidopsis thaliana ecotype Columbia (Col-0) was transformed with Agrobacterium using the floral dip method (Clough, S. J. and Bent, A. F. (1998) Floral dip: a simplified method for Agrobacterium-mediated transformation of Arabidopsis thaliana. The Plant Journal 16(6):735-743). Plants were grown at 21° C. with 16 h/8 h day and night until flowering and continuous light after inoculation (plants inoculated with Agrobacterium were denominated T0 plants). Selection of T1 (seeds produced by T0 plants) seedlings was performed on Petri plates with half-strength Murashige and Skoog (MS) medium (Murashige, T. and Skoog, F. (1962) A revised medium for rapid grOwth and bioassays with tobacco tissue cultures. Physiologia plantarum 15:473-497) supplemented with 1% sucrose, 0.2% phytagel and 300 μg/ml cefotaxime. […]
DNA was extracted according to Dilworth and Frey (2000)foreign genes detected by PCR. […]

[2] = biological target: Hydrilla PDS Arg^304 Arginine (wildtype) (Hydrilla verticillata, UniProt Q66PY0); assay: Fluridone enzyme inhibition assay, non-His-tagged PDS (Table 1); format: biochemical; conditions: Arginine at 304 (reference)
Protocol: The expression constructs in Table 1 were derived from an original clone of the susceptible PDS gene from Hydrilla and then the Arg^304 was mutated to the listed amino acid. Expression was under the control of the lac promoter […] with the initiation codon of the LacZalpha-ccdB gene in the pCR4-TOPO vector (Invitrogen Inc., CA, Cat. #K4575-01).
All mutagenesis was performed, unless stated otherwise, using the TOPO-vector containing the wildtype (H4) PDS-sequence, which was extracted from an overnight culture with the Qiagen Plasmid Prep Kit as described above. The amount of the extracted plasmid was diluted to 10 ng/μl and used as template in a mutagenesis-procedure using the QuikChange Site-directed Mutagenesis Kit (Stratagene, Calif., #200518). The design of the mutagenesis-primers was conducted according to the manufacturers protocol to enable the specific change of Arg^304-codon to code for the desired amino acid. Primers (purchased from MWG-Biotech) and their introduced amino acid change are listed below with the changed codon underlined:
The reactions were performed according to the manufacturers protocol. […] Sequences were assembled and analyzed using Seqman. […]
Phytoene desaturase activity and its inhibition by herbicides was determined using an in vitro system using components derived from the in vivo production of phytoene and phytoene desaturase proteins. […]

Sequence of Hydrilla PDS Arg^304 Arginine (wildtype) (Q66PY0 1-580): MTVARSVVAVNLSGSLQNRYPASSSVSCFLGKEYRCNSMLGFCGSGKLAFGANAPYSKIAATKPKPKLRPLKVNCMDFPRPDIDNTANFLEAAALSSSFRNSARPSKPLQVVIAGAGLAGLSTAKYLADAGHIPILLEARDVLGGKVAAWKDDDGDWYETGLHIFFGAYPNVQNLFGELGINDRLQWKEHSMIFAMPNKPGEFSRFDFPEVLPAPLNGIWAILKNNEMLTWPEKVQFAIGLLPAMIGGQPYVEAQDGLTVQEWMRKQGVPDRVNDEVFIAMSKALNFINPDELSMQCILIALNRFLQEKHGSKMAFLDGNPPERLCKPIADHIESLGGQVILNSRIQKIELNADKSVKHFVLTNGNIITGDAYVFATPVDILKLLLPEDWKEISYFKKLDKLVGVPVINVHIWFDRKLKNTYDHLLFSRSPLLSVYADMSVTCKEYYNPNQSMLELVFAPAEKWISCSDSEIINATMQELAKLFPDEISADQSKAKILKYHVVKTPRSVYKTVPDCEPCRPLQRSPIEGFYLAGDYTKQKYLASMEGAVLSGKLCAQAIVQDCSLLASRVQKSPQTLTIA

Molecule	confirmed transformed plants resistant to the herbicide ([1]; construct pPDATG1303)	confirmed transformed plants resistant to the herbicide ([1]; construct pPDSER1303)	confirmed transformed plants resistant to the herbicide ([1]; construct pPDTHR1303)	R/S [2]
CNc1cnn(-c2cccc(C(F)(F)F)c2)c(=O)c1Cl [Norflurazon]	1	3	1	–
Fluridone	–	–	–	1
